Assay results: patent publication US10196393B2, “JAK inhibitors containing a 4-membered heterocyclic amide” (THERAVANCE BIOPHARMA R&D IP, LLC, priority 2017, dated 2019)

Key:
[1] = target: JAK1 (Homo sapiens (Human), UniProt P23458); test: Biochemical JAK kinase assay (LanthaScreen), JAK1; conditions: converted from pIC50 with Cheng-Prusoff equation
Description: (§1) Assay 1: Biochemical JAK Kinase Assays
(§2) A panel of four LanthaScreen JAK biochemical assays (JAK1, 2, 3 and Tyk2) were carried in a common kinase reaction buffer (50 mM HEPES, pH 7.5, 0.01% Brij-35, 10 mM MgCl2, and 1 mM EGTA). Recombinant GST-tagged JAK enzymes and a GFP-tagged STAT1 peptide substrate were obtained from Life Technologies.
(§3) Serially diluted compounds were pre-incubated with each of the four JAK enzymes and the substrate in white 384-well microplates (Corning) at ambient temperature for 1 h. ATP was subsequently added to initiate the kinase reactions in 10 μL total volume, with 1% DMSO. […] The plates were allowed to incubate at ambient temperature for 1 h before being read on the EnVision reader (Perkin Elmer).
(§4) For dose-response analysis, percent inhibition data were plotted vs. compound concentrations, and IC50 values were determined from a 4-parameter robust fit model with the Prism software (GraphPad Software). Results were expressed as pIC50 (negative logarithm of IC50) and subsequently converted to pKi (negative logarithm of dissociation constant, Ki) using the Cheng-Prusoff equation.

[2] = target: JAK3 (Homo sapiens (Human), UniProt P52333); test: Biochemical JAK kinase assay (LanthaScreen), JAK3; conditions: converted from pIC50 with Cheng-Prusoff equation
Sequence of JAK3 (P52333 whole entry): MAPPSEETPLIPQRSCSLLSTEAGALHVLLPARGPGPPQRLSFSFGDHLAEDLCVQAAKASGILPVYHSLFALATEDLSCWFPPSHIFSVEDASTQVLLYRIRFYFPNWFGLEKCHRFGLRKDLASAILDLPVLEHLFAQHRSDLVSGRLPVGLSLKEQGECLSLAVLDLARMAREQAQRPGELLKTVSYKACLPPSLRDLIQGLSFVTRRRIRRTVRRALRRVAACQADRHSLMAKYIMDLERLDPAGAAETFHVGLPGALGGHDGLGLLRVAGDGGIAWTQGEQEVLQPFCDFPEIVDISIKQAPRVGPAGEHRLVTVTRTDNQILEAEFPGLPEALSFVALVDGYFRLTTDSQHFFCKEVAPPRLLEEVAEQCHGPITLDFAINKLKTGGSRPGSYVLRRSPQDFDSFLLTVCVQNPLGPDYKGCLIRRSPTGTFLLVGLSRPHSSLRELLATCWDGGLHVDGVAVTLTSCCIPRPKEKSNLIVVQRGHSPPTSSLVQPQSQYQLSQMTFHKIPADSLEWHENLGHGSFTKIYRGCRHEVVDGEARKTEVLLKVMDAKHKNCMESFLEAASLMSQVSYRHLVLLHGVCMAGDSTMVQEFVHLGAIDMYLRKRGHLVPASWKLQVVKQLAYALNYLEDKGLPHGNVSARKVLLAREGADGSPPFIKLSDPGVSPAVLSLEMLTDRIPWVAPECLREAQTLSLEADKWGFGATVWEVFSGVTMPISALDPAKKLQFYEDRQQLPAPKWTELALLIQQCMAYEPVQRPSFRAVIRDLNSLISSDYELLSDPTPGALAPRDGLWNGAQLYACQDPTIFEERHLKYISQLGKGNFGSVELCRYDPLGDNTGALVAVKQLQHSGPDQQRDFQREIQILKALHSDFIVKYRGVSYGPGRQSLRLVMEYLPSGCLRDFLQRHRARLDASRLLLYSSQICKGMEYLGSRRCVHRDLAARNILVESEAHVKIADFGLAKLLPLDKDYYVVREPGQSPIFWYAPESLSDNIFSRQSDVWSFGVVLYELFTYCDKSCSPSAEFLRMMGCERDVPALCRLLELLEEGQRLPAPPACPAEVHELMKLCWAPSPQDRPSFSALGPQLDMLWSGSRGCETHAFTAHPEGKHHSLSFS
Description: as §1, §2, §3, §4

[3] = tested on: IL-13 induced STAT6 phosphorylation in BEAS-2B human lung epithelial cells; test: Cellular JAKI potency assay (AlphaScreen), BEAS-2B; assay type: cell-based; conditions: BEAS-2B cells
Description: Assay 2: Cellular JAKI Potency Assay
The AlphaScreen JAKI cellular potency assay was carried out by measuring interleukin-13 (IL-13, R&D Systems) induced STAT6 phosphorylation in BEAS-2B human lung epithelial cells (ATCC). The anti-STAT6 antibody (Cell Signaling Technologies) was conjugated to AlphaScreen acceptor beads (Perkin Elmer), while the anti-pSTAT6 (pTyr641) antibody (Cell Signaling Technologies) was biotinylated using EZ-Link Sulfo-NHS-Biotin (Thermo Scientific).
BEAS-2B cells were grown at 37° C. in a 5% CO2 humidified incubator in 50% DMEM/50% F-12 medium (Life Technologies) supplemented with 10% FBS (Hyclone), 100 U/mL penicillin, 100 μg/mL streptomycin (Life Technologies), and 2 mM GlutaMAX (Life Technologies). On day 1 of the assay, cells were seeded at a 7,500 cells/well density in white poly-D-lysine-coated 384-well plates (Corning) with 25 μL medium, and were allowed to adhere overnight in the incubator. On day 2 of the assay, the medium was removed and replaced with 12 μL of assay buffer (Hank's Balanced Salt Solution/HBSS, 25 mM HEPES, and 1 mg/ml bovine serum albumin/BSA) containing dose-responses of test compounds. Compounds were serially diluted in DMSO and then diluted another 1000-fold in media to bring the final DMSO concentration to 0.1%. Cells were incubated with test compounds at 37° C. for 1 h, and followed by the addition of 12 μl of pre-warmed IL-13 (80 ng/mL in assay buffer) for stimulation. After incubating at 37° C. for 30 min, the assay buffer (containing compound and IL-13) was removed, and 10 μL of cell lysis buffer (25 mM HEPES, 0.1% SDS, 1% NP-40, 5 mM MgCl2, 1.3 mM EDTA, 1 mM EGTA, and supplement with Complete Ultra mini protease inhibitors and PhosSTOP from Roche Diagnostics). The plates were shaken at ambient temperature for 30 min before the addition of detection reagents. A mixture of biotin-anti-pSTAT6 and anti-STAT6 conjugated acceptor beads was added first and incubated at ambient temperature for 2 h, followed by the addition of streptavidin conjugated donor beads (Perkin Elmer). After a minimum of 2 h incubation, the assay plates were read on the EnVision plate reader. AlphaScreen luminescence signals were recorded and utilized to calculate the percent inhibition values based on DMSO and background controls.
For dose-response analysis, percent inhibition data were plotted vs. compound concentrations, and IC50 values were determined from a 4-parameter robust fit model with the Prism software. Results may also be expressed as the negative logarithm of the IC50 value, pIC50.
Test compounds having a lower IC50 value or higher pIC50 value in this assay show greater inhibition of IL-13 induced STAT6 phosphorylation.

[4] = tested on: IL-13 induced pSTAT6 induction in lung tissue; test: Murine model of IL-13 induced pSTAT6 induction in lung tissue; assay type: in vivo; conditions: mouse lung, 1 mg/mL 50 μL oral aspiration, IL-13 challenge 4 h after dose, lungs at 5 hours
Description: Assay 4: Murine (Mouse) Model of IL-13 Induced pSTAT6 Induction in Lung Tissue
Il-13 is an important cytokine underlying the pathophysiology of asthma (Kudlacz et al. Eur. J. Pharmacol, 2008, 582,154-161). IL-13 binds to cell surface receptors activating members of the Janus family of kinases (JAK) which then phosphorylate STAT6 and subsequently activates further transcription pathways. In the described model, a dose of IL-13 was delivered locally into the lungs of mice to induce the phosphorylation of STAT6 (pSTAT6) which is then measured as the endpoint.
Adult balb/c mice from Harlan were used in the assay. On the day of study, animals were lightly anesthetized with isoflurane and administered either vehicle or test compound (1 mg/mL, 50 μL total volume over several breaths) via oral aspiration. Animals were placed in lateral recumbency post dose and monitored for full recovery from anesthesia before being returned to their home cage. Four hours later, animals were once again briefly anesthetized and challenged with either vehicle or IL-13 (0.03 μg total dose delivered, 50 μL total volume) via oral aspiration before being monitored for recovery from anesthesia and returned to their home cage. One hour after vehicle or IL-13 administration, lungs were collected for both pSTAT6 detection using an anti-pSTAT6 ELISA (rabbit mAb capture/coating antibody; mouse mAb detection/report antibody: anti-pSTAT6-pY641; secondary antibody: anti-mouse IgG-HRP) and analyzed for total drug concentration as described above in Assay 3.
Selected compounds of the invention were tested in the assay. Activity in the model is evidenced by a decrease in the level of pSTAT6 present in the lungs of treated animals at 5 hours compared to the vehicle treated, IL-13 challenged control animals. The difference between the control animals which were vehicle-treated, IL-13 challenged and the control animals which were vehicle-treated, vehicle challenged dictated the 0% and 100% inhibitory effect, respectively, in any given experiment.

[5] = tested on: Alternaria alternata-induced eosinophilic inflammation of the lung (BALF eosinophils); test: Murine model of Alternaria alternata-induced eosinophilic inflammation of the lung; assay type: in vivo; conditions: mouse, oropharyngeal aspiration 0.03-1.0 mg/mL, BALF 48 h after challenge; maximum statistically significant inhibition
Description: Assay 5: Murine Model of Alternaria alternata-Induced Eosinophilic Inflammation of the Lung
Airway eosinophilia is a hallmark of human asthma. Alternaria alternata is a fungal aeroallergen that can exacerbate asthma in humans and induces eosinophilic inflammation in the lungs of mice (Havaux et al. Clin Exp Immunol. 2005 February; 139(2):179-88).
Seven- to nine-week old male C57 mice from Taconic were used in the study. On the day of study, animals were lightly anesthetized with isoflurane and administered either vehicle or test compound (0.03-1.0 mg/mL, 50 μL total volume over several breaths) via oropharyngeal aspiration. Animals were placed in lateral recumbency post dose and monitored for full recovery from anesthesia before being returned to their home cage. One hour later, animals were once again briefly anesthetized and challenged with either vehicle or alternaria extract (200 ug total extract delivered, 50 μL total volume) via oropharyngeal aspiration before being monitored for recovery from anesthesia and returned to their home cage. Forty-eight hours after alternaria administration, bronchoalveolar lavage fluid (BALF) was collected and eosinophils were counted in the BALF using the Advia 120 Hematology System (Siemens). […]

[6] = Pharmacokinetics in plasma and lung in mouse; conditions: oral aspiration, 0.2 mg/mL 50 μL, lung AUC (μg hr/g) / plasma AUC (μg hr/mL)
[7] = target: JAK2 (Homo sapiens (Human), UniProt O60674); test: Biochemical JAK kinase assay (LanthaScreen), JAK2; conditions: converted from pIC50 with Cheng-Prusoff equation
Sequence of JAK2 (O60674 whole entry): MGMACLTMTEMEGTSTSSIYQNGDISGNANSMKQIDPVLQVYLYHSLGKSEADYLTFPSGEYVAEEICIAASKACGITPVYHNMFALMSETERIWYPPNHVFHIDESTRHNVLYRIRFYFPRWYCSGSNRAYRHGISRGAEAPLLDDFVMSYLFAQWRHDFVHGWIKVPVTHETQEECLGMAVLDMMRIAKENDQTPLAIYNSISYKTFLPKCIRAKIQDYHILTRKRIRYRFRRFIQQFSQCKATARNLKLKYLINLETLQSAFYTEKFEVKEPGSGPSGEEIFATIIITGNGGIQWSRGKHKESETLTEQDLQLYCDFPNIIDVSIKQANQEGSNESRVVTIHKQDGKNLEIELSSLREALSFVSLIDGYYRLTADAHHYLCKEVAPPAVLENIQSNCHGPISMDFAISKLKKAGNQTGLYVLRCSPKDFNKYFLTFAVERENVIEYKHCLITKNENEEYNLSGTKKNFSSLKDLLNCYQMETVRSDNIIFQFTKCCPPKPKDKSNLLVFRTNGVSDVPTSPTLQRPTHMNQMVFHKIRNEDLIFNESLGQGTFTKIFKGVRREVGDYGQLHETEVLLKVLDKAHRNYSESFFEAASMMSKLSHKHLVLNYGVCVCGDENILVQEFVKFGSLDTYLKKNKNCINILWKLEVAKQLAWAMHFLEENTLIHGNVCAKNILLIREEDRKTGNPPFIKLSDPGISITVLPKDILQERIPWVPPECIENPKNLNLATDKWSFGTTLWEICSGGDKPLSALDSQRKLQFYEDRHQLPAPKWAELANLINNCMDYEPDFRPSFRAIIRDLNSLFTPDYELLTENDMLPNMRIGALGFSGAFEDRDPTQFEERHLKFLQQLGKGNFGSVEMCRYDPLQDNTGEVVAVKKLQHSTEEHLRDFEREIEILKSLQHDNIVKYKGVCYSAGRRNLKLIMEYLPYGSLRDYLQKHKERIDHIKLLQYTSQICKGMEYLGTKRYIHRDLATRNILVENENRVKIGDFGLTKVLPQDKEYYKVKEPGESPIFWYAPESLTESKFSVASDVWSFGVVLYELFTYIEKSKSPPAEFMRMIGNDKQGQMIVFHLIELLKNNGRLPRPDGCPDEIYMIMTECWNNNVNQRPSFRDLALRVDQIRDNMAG
Description: as §1, §2, §3, §4

Sequence of JAK1 (P23458 whole entry): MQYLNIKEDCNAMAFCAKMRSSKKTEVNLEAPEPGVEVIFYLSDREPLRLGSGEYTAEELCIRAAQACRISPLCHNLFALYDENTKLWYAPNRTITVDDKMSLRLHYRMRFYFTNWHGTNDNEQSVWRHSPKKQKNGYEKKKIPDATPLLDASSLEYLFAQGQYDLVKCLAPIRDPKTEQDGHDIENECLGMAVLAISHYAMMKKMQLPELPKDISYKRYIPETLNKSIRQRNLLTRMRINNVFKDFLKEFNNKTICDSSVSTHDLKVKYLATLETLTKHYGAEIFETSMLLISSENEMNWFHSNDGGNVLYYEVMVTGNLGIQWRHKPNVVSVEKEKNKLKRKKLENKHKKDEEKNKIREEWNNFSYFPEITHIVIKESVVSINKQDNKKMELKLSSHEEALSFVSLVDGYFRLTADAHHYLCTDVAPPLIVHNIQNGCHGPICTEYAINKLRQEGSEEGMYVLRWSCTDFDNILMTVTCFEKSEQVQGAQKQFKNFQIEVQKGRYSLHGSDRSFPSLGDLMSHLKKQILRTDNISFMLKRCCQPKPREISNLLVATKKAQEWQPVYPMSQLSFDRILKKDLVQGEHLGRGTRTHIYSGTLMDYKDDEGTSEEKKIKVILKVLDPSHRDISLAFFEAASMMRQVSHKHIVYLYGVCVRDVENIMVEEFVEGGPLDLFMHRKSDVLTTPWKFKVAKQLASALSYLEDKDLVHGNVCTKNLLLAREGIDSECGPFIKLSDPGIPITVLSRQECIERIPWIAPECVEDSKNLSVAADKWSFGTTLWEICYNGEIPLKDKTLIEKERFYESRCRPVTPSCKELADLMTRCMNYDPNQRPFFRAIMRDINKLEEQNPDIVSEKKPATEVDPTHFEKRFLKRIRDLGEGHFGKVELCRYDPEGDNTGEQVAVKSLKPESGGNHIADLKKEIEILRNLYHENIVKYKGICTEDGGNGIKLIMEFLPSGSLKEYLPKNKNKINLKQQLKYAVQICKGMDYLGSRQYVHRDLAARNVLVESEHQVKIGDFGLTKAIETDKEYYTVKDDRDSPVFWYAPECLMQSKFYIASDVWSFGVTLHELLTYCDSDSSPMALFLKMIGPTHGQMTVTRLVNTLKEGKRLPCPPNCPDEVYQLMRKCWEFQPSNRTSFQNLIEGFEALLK

Compound | Ki [1] | Ki [2] | IC50 ([3]; Homo sapiens) | pSTAT6 inhibition Assay 4 [4] | Percent Inhibition of Alternaria-induced BALF Eosinophils [5] | Lung to Plasma ratio Assay 3 [6] | IC50 [3] | Ki [7]
CCCN1Cc2[nH]c(-c3n[nH]c4cc(-c5cc(F)c(O)cc5CC)ccc34)nc2C[C@H]1C(=O)N1CC(N(C)C)C1 [Example 4, (S)-(3-(dimethylamino)azetidin-1-yl)(2-(6-(2-ethyl-5-fluoro-4-hydroxyphenyl)-1H-indazol-3-yl)-5-propyl-4,5,6,7-tetrahydro-3H-imidazo[4,5-c]pyridin-6-yl)methanone] | 0.06 nM | 0.13 nM | 7.4 nM | A (A represents between 60% and 80% inhibition) | 79% | C (C denotes a ratio between 20 and 50) | – | –
CCCN1Cc2[nH]c(-c3n[nH]c4cc(-c5cc(F)c(O)cc5CC)ccc34)nc2C[C@H]1C(=O)N1CC(C)(N(C)C)C1 [Example 8, (S)-(3-(dimethylamino)-3-methylazetidin-1-yl)(2-(6-(2-ethyl-5-fluoro-4-hydroxyphenyl)-1H-indazol-3-yl)-5-propyl-4,5,6,7-tetrahydro-3H-imidazo[4,5-c]pyridin-6-yl)methanone] | – | – | 8.5 nM | B (B represents between 40% and 60% inhibition) | – | – | – | –
CCc1cc(O)c(F)cc1-c1ccc2c(-c3nc4c([nH]3)CN(C(C)C)[C@H](C(=O)N3CC(N(C)C)C3)C4)n[nH]c2c1 [Example 8-7] | 0.06 nM | 0.2 nM | – | B (B represents between 40% and 60% inhibition) | – | – | 3.1 nM | –
CCc1cc(O)c(F)cc1-c1ccc2c(-c3nc4c([nH]3)CN(CC)[C@@H](C(=O)N3CC(N5CCCCC5)C3)C4)n[nH]c2c1 [Example 8-15] | – | – | – | C (C represents between 25% and 40% inhibition) | – | – | 5.6 nM | 0.03 nM
CCc1cc(O)c(F)cc1-c1ccc2c(-c3nc4c([nH]3)CN(C(C)C)C(C(=O)N3CC(C)(N(C)C)C3)C4)n[nH]c2c1 (stereo not drawn) [Example 8-16] | – | – | – | C (C represents between 25% and 40% inhibition) | – | – | – | –
CCc1cc(O)c(F)cc1-c1ccc2c(-c3nc4c([nH]3)CN(CC)[C@H](C(=O)N3CC(N(C)C)C3)C4)n[nH]c2c1 [Example 8-22, (S)-(3-(dimethylamino)azetidin-1-yl)(5-ethyl-2-(6-(2-ethyl-5-fluoro-4-hydroxyphenyl)-1H-indazol-3-yl)-4,5,6,7-tetrahydro-3H-imidazo[4,5-c]pyridin-6-yl)methanone] | – | 0.32 nM | 5.25 nM | B (B represents between 40% and 60% inhibition) | – | – | – | –
CCc1cc(O)c(F)cc1-c1ccc2c(-c3nc4c([nH]3)CN(CC)[C@H](C(=O)N3CC(C)(N(C)C)C3)C4)n[nH]c2c1 [Example 8-23, (S)-(3-(dimethylamino)-3-methylazetidin-1-yl)(5-ethyl-2-(6-(2-ethyl-5-fluoro-4-hydroxyphenyl)-1H-indazol-3-yl)-4,5,6,7-tetrahydro-3H-imidazo[4,5-c]pyridin-6-yl)methanone] | – | – | 7.7 nM | B (B represents between 40% and 60% inhibition) | – | – | – | –
